From PubChem BioAssay (NCI) come the findings set out here.

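Test compounds were applied to cells in 96-well plates for 48 hours at 5 doses. Here, GI50 denotes the concentration required for 50% inhibition of growth. At the TGI there is no net growth.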

One test relates to EKVX NSCLC. The test can be described thus: NCI tumour cell line growth inhibition, 48 h.
For the compound `O=c1cc(CNc2cc(F)cc(F)c2)c2ccc(I)cc2[nH]1`, the GI50 is 2.33 µM and the TGI is over 100 µM.
As to `CC[C@](C)(O)C(=O)O[C@H]1C(=O)O[C@@H]2C[C@H]3C(C)=CC(=O)[C@@H](O)[C@]3(C)[C@H]3[C@@]4(O)OC[C@]32[C@@H]1[C@@H](C)[C@H]4O`, the GI50 is 1.61 µM.
Take `NC(=O)[C@H]1CCN(c2ncnc(N)c2F)C[C@@H]1N1CCC[C@@H](Nc2cc(Cl)cc(C(F)(F)F)c2)C1=O`: the GI50 was 28.7 µM and the TGI came out at 77.1 µM.
For `CCN(CC)c1ccc(/C=C/c2cc(C)c3ccccc3n2)cc1`, in that order: 4.95 µM and 44.9 µM.
The corresponding values for `O=C(CCl)c1ccc([N+](=O)[O-])o1` are 10.7 µM and 32.6 µM.
The compound `Nc1ncnc2c1ccn2C1OC2COP(=O)(O)OC2C1O` (centres undefined) showed a TGI of 57.7 µM.
Take `Cc1cc(N2CCCCC2)nc(N(CCNc2ccnc3cc(Cl)ccc23)Cc2ccco2)n1`: the GI50 is 2.09 µM and the TGI turned out to be 6.07 µM.
`O=C(O)[C@@H]1C2CC([C@@H]1C(=O)O)[C@H](N1C(=O)CCC1=O)[C@@H]2Br` (some centres undefined) displayed a TGI of over 100 µM.
For the compound `CCCN1C(=O)/C(=c2\sc3n(c2=O)C2C(NN=3)N(CC)C(=O)N2CC)c2ccccc21` (centres undefined), the GI50 was 0.729 µM and the TGI is over 57.2 µM.
With `CCn1c(-c2nonc2N)nc2cncc(C(=O)N3CCNCC3)c21`, the GI50 is over 25 µM and the TGI was over 25 µM.
On to `c1ccc2[nH]c(-c3ccc(N4CCN(c5ccc(-c6nc7ccccc7[nH]6)cc5)CC4)cc3)nc2c1`, for which the GI50 was 25.7 µM and the TGI was over 100 µM.
For `CCN(CC)CCOc1ccc(C(=C(C)c2ccc(Cl)cc2)c2ccc(OCCN(CC)CC)cc2)cc1`, in that order: 0.989 µM and 3.5 µM.
The corresponding values for `C[C@]12CC[C@H]3[C@@H](CCC4=CC(=O)CC[C@@H]43)[C@@H]1CC[C@@H]2OC(=O)N(CCCl)N=O` are 3.67 µM and 36.6 µM.
`CC12CCC(=O)C=C1CCC1C2CCC2(C)C(C(=O)Cn3cnc4c(=S)nc[nH]c43)CCC12` (centres undefined) came in with a TGI of over 100 µM.
As to `CN(C)CCNC(=O)c1cccn2c(=O)c3cc4ccccc4cc3nc12`, the GI50 was 0.353 µM.

Another test has as its system MALME-3M melanoma. The test can be described thus: NCI tumour cell line growth inhibition, 48 h.
On to `O=c1cc(CNc2cc(F)cc(F)c2)c2ccc(I)cc2[nH]1`, for which the GI50 was 0.714 µM and the TGI is over 100 µM.
The corresponding values for `CC[C@](C)(O)C(=O)O[C@H]1C(=O)O[C@@H]2C[C@H]3C(C)=CC(=O)[C@@H](O)[C@]3(C)[C@H]3[C@@]4(O)OC[C@]32[C@@H]1[C@@H](C)[C@H]4O` are 0.0337 µM and 0.137 µM.
The corresponding values for `NC(=O)[C@H]1CCN(c2ncnc(N)c2F)C[C@@H]1N1CCC[C@@H](Nc2cc(Cl)cc(C(F)(F)F)c2)C1=O` are 19.1 µM and 42.8 µM.
For `CCN(CC)c1ccc(/C=C/c2cc(C)c3ccccc3n2)cc1`, the GI50 was 3.39 µM and the TGI is 22.8 µM.
The corresponding values for `O=C(CCl)c1ccc([N+](=O)[O-])o1` are 1.98 µM and 4.37 µM.
For the compound `Nc1ncnc2c1ccn2C1OC2COP(=O)(O)OC2C1O` (centres undefined), the TGI was determined as 1.41 µM.
For the compound `Cc1cc(N2CCCCC2)nc(N(CCNc2ccnc3cc(Cl)ccc23)Cc2ccco2)n1`, the GI50 is 1.98 µM and the TGI was determined as 3.65 µM.
`O=C(O)[C@@H]1C2CC([C@@H]1C(=O)O)[C@H](N1C(=O)CCC1=O)[C@@H]2Br` (some centres undefined) displayed a TGI of over 100 µM.
For the compound `CCCN1C(=O)/C(=c2\sc3n(c2=O)C2C(NN=3)N(CC)C(=O)N2CC)c2ccccc21` (centres undefined), the GI50 is 0.612 µM and the TGI turned out to be 25.1 µM.
The corresponding values for `CCn1c(-c2nonc2N)nc2cncc(C(=O)N3CCNCC3)c21` are over 25 µM and over 25 µM.
The corresponding values for `c1ccc2[nH]c(-c3ccc(N4CCN(c5ccc(-c6nc7ccccc7[nH]6)cc5)CC4)cc3)nc2c1` are over 100 µM and over 100 µM.
As for `CCN(CC)CCOc1ccc(C(=C(C)c2ccc(Cl)cc2)c2ccc(OCCN(CC)CC)cc2)cc1`, the GI50 is 0.563 µM and the TGI turned out to be 1.09 µM.
For `C[C@]12CC[C@H]3[C@@H](CCC4=CC(=O)CC[C@@H]43)[C@@H]1CC[C@@H]2OC(=O)N(CCCl)N=O`, in that order: 11.3 µM and 28.9 µM.
For `CC12CCC(=O)C=C1CCC1C2CCC2(C)C(C(=O)Cn3cnc4c(=S)nc[nH]c43)CCC12` (centres undefined), the TGI is over 100 µM.
`CN(C)CCNC(=O)c1cccn2c(=O)c3cc4ccccc4cc3nc12`: the GI50 was 0.116 µM and the TGI was 0.617 µM.
Consider `COc1ccc(Cn2nc(-c3cc(OC)c(OC)c(OC)c3)c3c2CCc2cnoc2-3)cc1OC`, for which the GI50 is 14.8 µM and the TGI is over 100 µM.

In the next test the test system is SW-620 colon. The test can be described thus: NCI tumour cell line growth inhibition, 48 h.
Take `O=c1cc(CNc2cc(F)cc(F)c2)c2ccc(I)cc2[nH]1`: the GI50 was 0.384 µM and the TGI is over 100 µM.
For the compound `CC[C@](C)(O)C(=O)O[C@H]1C(=O)O[C@@H]2C[C@H]3C(C)=CC(=O)[C@@H](O)[C@]3(C)[C@H]3[C@@]4(O)OC[C@]32[C@@H]1[C@@H](C)[C@H]4O`, the GI50 was 0.216 µM.
`NC(=O)[C@H]1CCN(c2ncnc(N)c2F)C[C@@H]1N1CCC[C@@H](Nc2cc(Cl)cc(C(F)(F)F)c2)C1=O`: the GI50 was 25.6 µM and the TGI is over 100 µM.
Take `CCN(CC)c1ccc(/C=C/c2cc(C)c3ccccc3n2)cc1`: the GI50 was 1.87 µM and the TGI is 9.21 µM.
The corresponding values for `O=C(CCl)c1ccc([N+](=O)[O-])o1` are 0.886 µM and 2.54 µM.
For the compound `Nc1ncnc2c1ccn2C1OC2COP(=O)(O)OC2C1O` (centres undefined), the TGI was over 44.5 µM.
In the case of `Cc1cc(N2CCCCC2)nc(N(CCNc2ccnc3cc(Cl)ccc23)Cc2ccco2)n1`, the GI50 is 1.53 µM and the TGI was 3.08 µM.
Consider `O=C(O)[C@@H]1C2CC([C@@H]1C(=O)O)[C@H](N1C(=O)CCC1=O)[C@@H]2Br` (some centres undefined), for which the TGI was over 100 µM.
Take `CCCN1C(=O)/C(=c2\sc3n(c2=O)C2C(NN=3)N(CC)C(=O)N2CC)c2ccccc21` (centres undefined): the GI50 is 0.409 µM and the TGI is over 100 µM.
